In assay [1] the test system is Lact 7496. The assay is described as follows: MIC microdilution, gram positive. Conditions: Lacticaseibacillus rhamnosus, 7496; Table 2, Gram Positive. It counts as cell-based, Lactobacillus rhamnosus (casei). Summed up: (§1)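 Anaerobic strains required supplemented half-strength BHI and incubation in 5% CO2, 10% H2, balance N2; aerobic strains used full-strength BHI. Inoculum approx. 1×10^8 CFU/mL; compounds from DMSO, 50 to 0.05 μg/assay; visual MIC.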

The test system of assay [2] is A. viscosus. As to the kind of experiment: MIC microdilution, gram positive. It counts as cell-based, Actinomyces viscosus. The note with it: Actinomyces viscosus; Table 2, Gram Positive. Summed up: as §1
A general note: In broth dilution the organism is exposed to a series of concentrations in liquid medium.

Assay [3] relates to S. mutans. The assay is described as follows: MIC microdilution, gram positive. The note with it: Streptococcus mutans; Table 1, Gram Positive. It counts as cell-based, Streptococcus mutans. Summed up:
as §1

The subject of assay [4] is Fuso. 25586. As to the kind of experiment: MIC microdilution, gram negative. It counts as cell-based, Fusobacterium nucleatum. The note with it: for MIC: Fusobacterium nucleatum, Table 3, Gram Negative; for MIC Fuso. 25586: Table 3 printed a second time, Gram Negative. The procedure, abridged:
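Modified NCCLS broth microdilution; anaerobes grown 48-72 hrs in half-strength BHI with yeast extract, hemin and menadione, aerobes in full-strength BHI, inoculum ~1×10^8 CFU/mL (10 μL/assay). Drugs from DMSO stock, final 50 to 0.05 μg/assay, duplicate, 24 to 48 hrs (anaerobic: 5% CO2, 10% H2, N2); MIC = lowest concentration without visible growth.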

For assay [5], the system named is S. aureus R2. As to the kind of experiment: Staphylococcus MIC. The assay is classed as cell-based. The note with it: second Table 5 (Example 5), strain 00-42-1066. As to the method: The MIC's for the compounds were determined by a modified microdilution tube dilution method described in “Methods for Dilution Antimicrobial Susceptibility Tests for Bacteria that Grow Aerobically” (National Committee for Clinical Laboratory Standards Approved Standards, 1997, NCCLS document M7-A4). In general the modifications were made because of the unique growth requirements for the fastidious oral organisms and for those bacteria that require anaerobic conditions. Reference is also made to “Methods for Antimicrobial Susceptibility of Anaerobic Bacteria” (National Committee for Clinical Laboratory Standards Approved Standards, 1997, NCCLS document M11-A4).
Briefly, the methods were as follows. Cultures were grown for 18-24hrs (aerobic bacteria) or 48-72 hrs (anaerobic bacteria) in the appropriate medium. For aerobic bacteria full strength brain heart infusion medium (BHI, Difco) was used. For anaerobic bacteria, half strength BHI (18.5 g/L) was supplemented by adding yeast extract (10 g/L), hemin (0.29 mL of a stock solution containing 0.1 g/200 mL dH2O) and menadione (15 mL of a stock solution containing 0.15 mL in 30 mL 95% EtOH) was used. Initial cultures were diluted to approximately 1×10^8 CFU/mL for use as an inoculum. Each assay received 10 μL of the inoculum. The drugs were prepared from a stock solution contained in dimethyl sulfoxide (DMSO) and diluted into the culture medium. Final concentrations of the drugs ranged from 50 to 0.05 μg/assay. The tests were run in duplicate and were incubated appropriately with regard to oxygen requirements for 24 to 48 hrs as required. Anaerobic incubation was an atmosphere of 5% CO2, 10% H2, with the balance N2. The lowest concentration of an antimicrobial agent at which no visible growth is noted was referred to as the MIC.
The S.aureus R2 species is a strain 00-42-1066 from the Children's Hospital in Buffalo. It was isolated from a wound in an individual. It was […]. The sensitivity of this strain was tested agaisnt several known antibiotics.

The test system of assay [6] is S.salivarius. As to the kind of experiment: MIC microdilution, gram positive. The note with it: Streptococcus salivarius; Table 1, Gram Positive. It counts as cell-based, Streptococcus salivarius. Summed up:
as §1

Assay [7] has as its system Str. pn. The assay is described as follows: Mean Streptococcus MIC. Conditions: Streptococcus; Table 5, mean. It counts as cell-based. The procedure, abridged:
(§2)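 Modified NCCLS broth microdilution in duplicate: 10 μL inoculum from cultures diluted to about 1×10^8 CFU/mL, drug 50 to 0.05 μg/assay diluted from DMSO stock. Full-strength BHI for aerobes, supplemented half-strength BHI under 5% CO2/10% H2/N2 for anaerobes, 24–48 h; MIC as lowest concentration without visible growth.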

The test system of assay [8] is Str. pn. R. As to the kind of experiment: Mean Streptococcus MIC. Conditions: Streptococcus; Table 5, mean; strain resistant to penicillin and erythromycin. It counts as cell-based. The procedure, abridged:
as §2

The record followed here is patent US6407288B1, “Naphthylsalicylanilides as antimicrobial and antiinflammatory agents” (The Research Foundation of State University of New York, priority 2000, dated 2002).

Structures are written as SMILES. Converted amounts (≈) assume the structure as drawn.

Consider `O=C(Nc1cccc(C(F)(F)F)c1)c1cc(C(=O)c2cccc3ccccc23)ccc1O` [NA1mF], for which the MIC (as a rule, the lowest concentration that inhibits growth of the organism) in assay [1] is 0.4 µg/mL (≈ 0.919 µM); in assay [2], less than 0.1 µg/mL; in assay [3] it was 0.8 µg/mL (≈ 1.84 µM); in assay [4] it was 3.1 µg/mL (≈ 7.12 µM); in assay [5], 1.6 µg/mL (≈ 3.67 µM); in assay [6], 3.1 µg/mL (≈ 7.12 µM). The MIC in assay [7] came out at 0.45 µg/mL (≈ 1.03 µM); in assay [8], 0.78 µg/mL (≈ 1.79 µM). Besides, the “MIC Fuso. 25586” value in assay [4] was determined as 3.1 micrograms/ml.
As for `CCCCc1ccc(C(=O)c2ccc(O)c(C(=O)Nc3cccc(C(F)(F)F)c3)c2)cc1` [BBAmF, reference compound], the MIC is 6.3 µg/mL (≈ 14.3 µM) in assay [1]; more than 50 µg/mL in assay [2]; more than 50 µg/mL in assay [3]; more than 50 µg/mL in assay [4]; more than 50 µg/mL in assay [5]; more than 50 µg/mL in assay [6]. For the same compound, the MIC was 0.45 µg/mL (≈ 1.02 µM) in assay [7] and more than 50 µg/mL in assay [8]. Besides, the “MIC Fuso. 25586” value in assay [4] is “NE (NE indicates that the drug was not effective at a concentration >50 micrograms/ml)”.
Consider `N#Cc1cccc(NC(=O)c2cc(C(=O)c3cccc4ccccc34)ccc2O)c1` [NA1mC], for which the MIC amounted to 3.1 µg/mL (≈ 7.9 µM) in assay [1]; 3.2 µg/mL (≈ 8.15 µM) in assay [2]; 3.1 µg/mL (≈ 7.9 µM) in assay [3]; 2.5 µg/mL (≈ 6.37 µM) in assay [4]; 6.3 µg/mL (≈ 16.1 µM) in assay [5]; 50 µg/mL (≈ 127 µM) in assay [6]. Further, the MIC in assay [7] stood at 1.1 µg/mL (≈ 2.8 µM); in assay [8], 12.5 µg/mL (≈ 31.9 µM). Also, the “MIC Fuso. 25586” value in assay [4] is 2.5 micrograms/ml.
As for `N#Cc1cccc(NC(=O)c2cc(C(=O)c3ccc(-c4ccccc4)cc3)ccc2O)c1` [BPAmC, reference compound], the MIC in assay [1] is 12.5 µg/mL (≈ 29.9 µM); in assay [2], more than 50 µg/mL; in assay [3] it was more than 50 µg/mL; in assay [4], more than 50 µg/mL; in assay [5] it was more than 50 µg/mL; in assay [6], more than 50 µg/mL. For the same compound, the MIC is 0.58 µg/mL (≈ 1.39 µM) in assay [7] and more than 50 µg/mL in assay [8]. Besides, in assay [4], the “MIC Fuso. 25586” value was “NE (NE indicates that the drug was not effective at a concentration >50 micrograms/ml)”.
In the case of `O=C(c1ccc(-c2ccccc2)cc1)c1ccc(O)c(C(=O)Nc2cccc(C(F)(F)F)c2)c1` [BPAmF, reference compound], the MIC was 6.3 µg/mL (≈ 13.7 µM) in assay [1]; more than 50 µg/mL in assay [2]; more than 50 µg/mL in assay [3]; more than 50 µg/mL in assay [4]; more than 50 µg/mL in assay [5]; more than 50 µg/mL in assay [6]. In addition, the MIC in assay [7] was 0.84 µg/mL (≈ 1.82 µM); in assay [8], more than 50 µg/mL. In assay [4], the “MIC Fuso. 25586” value is “NE (NE indicates that the drug was not effective at a concentration >50 micrograms/ml)”.
